This is an account of results in US9593145B2, “Secondary structure stabilized NMDA receptor modulators and uses thereof” (Northwestern University, priority 2010, dated 2017).

Usually % Inhibition stands for the relative decrease from the control value, in per cent. As usually defined, the inhibition is how much of the control response was suppressed. Low readings indicate a weak effect, high ones a strong effect.

One data set deals with Glutamate, NMDA, Agonism. Nature of the data set: binding assay, Glutamate, NMDA, Agonism. Also noted: species or system rat. The following applies: 10 μM. From the text: (§1) Table B depicts the results of binding assays against various targets with AK51: […]
Another data set deals with Glutamate, Kainate. The data set can be described thus: binding assay, Glutamate, Kainate. The following applies: 10 μM. Also noted: species or system rat.
Text: as §1

The nature of data set [1]: alternating T-maze learning task. Format: in vivo, rat. The settings on record: 60 min before testing. As for the experimental part:
Male 3 month old Fisher 344 X Brown Norway F1 cross rats (FBNF1) were used for this study. The t-maze was constructed with arms (45 cm long×10 cm wide×10 cm high) made of black Plexiglas enclosing the maze. Two plastic bottle caps, lined with wire mesh, were secured to the end of each goal arm in which the food reward (Cheerios, 100 mg/piece) was placed. Before the start of training, animals were gradually deprived of food to approximately 85% of their free feeding weight. On three successive days before the start of training, animals were habituated to the t-maze with food located throughout the maze. […] On the subsequent testing day, animals were given injections of AK51(0.3, 1, 3, 10, 30 mg/kg p.o.), or DMSO vehicle (1 mg/ml; Sigma, Saint Louis Mo.) in a blind manner via gastric gavage (4″, 16-ga; Braintree Scientific, Braintree Mass.) 60 min prior to the start of testing (n=8-9 per group. On the first trial of testing, both arms were baited with food and for the subsequent 20 trials only alternating choices (opposite of the animal's previous choice) were rewarded (˜30 sec inter-trial interval). The number of trials to criterion (5 consecutive correct choices) was calculated for each animal. Data was analyzed by ANOVA followed by Fisher PLSD post hoc tests comparing individual drug doses to vehicle (α=0.05). […]

Data set [2] concerns Glutamate, NMDA, Phencyclidine. The data set can be described thus: binding assay, Glutamate, NMDA, Phencyclidine. Also noted: species or system rat. The following applies: 10 μM.
Text: as §1

The test system of data set [3] is Schaffer collateral CA1 synapses. Nature of the data set: long term potentiation (LTP) at Schaffer collateral CA1 synapses, in vitro hippocampal slices. Format: cell-based. The following applies: for effect on magnitude of LTP: high frequency stimulus. From the text:
(§2) The effects of the three compounds were examined on 1) NMDA receptor gated single neuron conductance (INMDA) in hippocampal CAI pyramidal neurons and 2) the magnitude of long term potentiation (LTP) and long term depression (LTD) at Schaffer collateral CA1 synapses, in in vitro hippocampal slices.

For data set [4], the system named is Glycine, Strychnine-Sensitive. The data set can be described thus: binding assay, Glycine, Strychnine-Sensitive. Set-up: species or system rat. The settings on record: 10 μM.
Text: as §1

Data set [5] relates to Schaffer collateral CA1 synapses. Nature of the data set: long term depression (LTD) at Schaffer collateral CA1 synapses, in vitro hippocampal slices. The settings on record: 1 μM; low frequency stimulus. The class given is cell-based.
Text: as §2

Data set [6] has as its target T1, NMDA receptor (Rattus norvegicus, UniProt P35439).
T1 construct: in hippocampal CAI pyramidal neurons; from tissue; host or cells: in vitro hippocampal slices, CA1 pyramidal neurons
Nature of the data set: NMDA receptor gated single neuron conductance (INMDA) in hippocampal CA1 pyramidal neurons. Format: cell-based. The settings on record: for relative potency / magnitude as enhancer of INMDA among the tested compounds: low concentrations (50-100 nM).
Text: as §2

A further data set concerns Glutamate, AMPA. Nature of the data set: binding assay, Glutamate, AMPA. Also noted: species or system rat. The settings on record: 10 μM.
Text: as §1

In data set [7] the test system is Glutamate, NMDA, Polyamine. Nature of the data set: binding assay, Glutamate, NMDA, Polyamine. Set-up: species or system rat. The following applies: 10 μM.
Text: as §1

Another data set has as its system Glutamate, Non-Selective. The data set can be described thus: binding assay, Glutamate, Non-Selective. Also noted: species or system rat. The settings on record: 10 μM.
Text: as §1

The target in another data set is Potassium Channel hERG (Homo sapiens, UniProt Q12809). The data set can be described thus: binding assay, Potassium Channel hERG.
Chain of Potassium Channel hERG (Q12809 whole entry): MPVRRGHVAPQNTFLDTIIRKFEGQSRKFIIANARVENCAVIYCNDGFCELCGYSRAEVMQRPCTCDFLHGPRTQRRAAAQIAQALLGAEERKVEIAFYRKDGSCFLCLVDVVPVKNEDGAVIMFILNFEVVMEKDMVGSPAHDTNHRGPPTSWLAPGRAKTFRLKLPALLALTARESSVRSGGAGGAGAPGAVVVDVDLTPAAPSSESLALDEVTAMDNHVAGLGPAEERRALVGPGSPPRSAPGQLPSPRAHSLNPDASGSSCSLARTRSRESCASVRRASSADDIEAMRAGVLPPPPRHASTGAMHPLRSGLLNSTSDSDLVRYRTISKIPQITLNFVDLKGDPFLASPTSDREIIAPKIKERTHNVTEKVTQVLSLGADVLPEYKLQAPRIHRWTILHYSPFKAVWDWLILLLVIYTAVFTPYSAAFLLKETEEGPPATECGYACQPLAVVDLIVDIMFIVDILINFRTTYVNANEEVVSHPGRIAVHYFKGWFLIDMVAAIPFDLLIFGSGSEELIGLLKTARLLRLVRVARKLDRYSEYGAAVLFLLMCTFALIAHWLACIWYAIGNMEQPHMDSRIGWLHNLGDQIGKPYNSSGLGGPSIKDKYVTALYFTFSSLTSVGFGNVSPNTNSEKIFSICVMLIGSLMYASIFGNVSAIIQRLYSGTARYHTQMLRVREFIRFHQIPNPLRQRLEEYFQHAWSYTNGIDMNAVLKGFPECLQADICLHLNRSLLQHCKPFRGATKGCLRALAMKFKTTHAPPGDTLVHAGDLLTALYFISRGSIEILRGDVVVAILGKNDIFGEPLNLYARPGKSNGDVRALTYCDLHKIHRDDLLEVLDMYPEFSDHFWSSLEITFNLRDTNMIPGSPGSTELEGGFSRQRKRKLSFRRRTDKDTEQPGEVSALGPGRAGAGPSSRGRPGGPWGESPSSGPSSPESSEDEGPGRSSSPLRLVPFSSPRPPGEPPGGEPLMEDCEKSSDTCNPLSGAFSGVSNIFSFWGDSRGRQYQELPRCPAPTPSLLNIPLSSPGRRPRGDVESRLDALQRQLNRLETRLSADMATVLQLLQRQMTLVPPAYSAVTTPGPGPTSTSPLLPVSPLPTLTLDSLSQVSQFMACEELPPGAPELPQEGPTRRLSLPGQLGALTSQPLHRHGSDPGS
Text: as §1
Background: hERG is a cardiac potassium channel; its block is linked to QT prolongation.

Data set [8] has as its target T1, NMDA receptor. The following applies: cited from earlier work.
The test system of data set [9] is Schaffer collateral CA1 synapses. The following applies: cited from earlier work.
Data set [10] has the same test system. The settings on record: cited from earlier work. This is another data set of the same source.

“Also recorded” adds a separate entry of the source. Read-outs that look alike come from different tables or passages of the source. Residues, ends and D or L forms follow the SMILES beside them.

As to `O=C1NCC12CCCN2` (stereo not drawn) [AK51], the “% Inhibition” value was 27% in the data set on Glutamate, NMDA, Agonism; −13% with Glutamate, Kainate; −5% in data set [2]; 4% in data set [4]; −8% in the data set on Glutamate, AMPA; −14% in data set [7]. In addition, in the data set on Glutamate, Non-Selective, the “% Inhibition” value is listed as −10%. Moreover, the “learning behavior in the T-maze test” value is “statistically significant enhancement” in data set [1] (1.0 mg/kg by mouth, P<0.001) and “statistically significant enhancement” in data set [1] (3.0 mg/kg by mouth, P<0.01). The “effect on magnitude of LTP” value in data set [3] (100 nM) is reported as “potentiate”; in data set [3] (1 μM) it was “potentiate”; in [3] (1 μM, listed as NRX-10,051), “doubled”. The “effect on LTP” value in data set [3] (FIG. 4, 100 nM and 1 μM bath application) is recorded as “enhances”. Also, the “effect on LTD” value in [5] is listed as “not altering”. For the same compound, the “effect on single shock evoked INMDA (NMDA e.p.s.c.s)” value on NMDA receptor [6] (100 nM, listed as NRX-10,051) is reported as “enhanced; also recorded: marked enhancement”; on NMDA receptor [6] (1 μM), “enhancement”; on NMDA receptor [6] (1 μM, listed as NRX-10,051), “enhanced”. Further, the “effect on NMDA current (NMDA receptor-gated current, whole-cell recording)” value on NMDA receptor [6] (FIG. 4, 100 nM and 1 μM, 20 min bath application) is recorded as “enhances”. Further, the “relative potency / magnitude as enhancer of INMDA among the tested compounds” value on NMDA receptor [6] is given as “less potency than compound B; also recorded: smaller in magnitude”. At Potassium Channel hERG, this compound gave an inhibition at 10 µM of 3%.
For `CC(O)C(NC(=O)OCc1ccccc1)C(=O)N1CC2(CCCN2C(=O)OCc2ccccc2)C1=O` (stereo not drawn) [AK-52], the “effect on magnitude of LTP” value in data set [3] (100 nM) is “enhancement of LTP similar in magnitude to compound B and AK-51”; in data set [3] (1 μM), “slight, but significant, reduction”. Also, the “effect on induction / magnitude of LTP” value in data set [3] (concentration not given) is recorded as “selectively enhances”. Moreover, the “effect on LTD” value in [5] was “without altering; also recorded: did not affect”. Also, the “effect on single shock evoked INMDA (NMDA e.p.s.c.s)” value at NMDA receptor [6] (100 nM) is reported as “only a mild enhancement”; on NMDA receptor [6] (100 nM, listed as AK52), “enhancement”; at NMDA receptor [6] (1 μM), “significant reduction”; at NMDA receptor [6] (1 μM, listed as AK52) it was “marked reduction”. At NMDA receptor [6], the “relative potency / magnitude as enhancer of INMDA among the tested compounds” value is “weakest enhancer”.
Turning to `C[C@@H](O)[C@H](N)C(=O)N1CCC[C@H]1C(=O)N1CCC[C@H]1C(=O)N[C@H](C(N)=O)[C@@H](C)O` [GLYX-13] (H-TPPT-NH2), the “effect on burst INMDA” value at NMDA receptor [8] (100 μM) is “reducing”. Also, on NMDA receptor [8] (low concentration 1-10 μM), the “effect on burst-activated INMDA” value is on record as “enhancement”. For the same compound, the “effect on single pulse evoked INMDA” value on NMDA receptor [8] (low concentration 1-10 μM) was “reducing”. The “effect on LTP” value is listed as “reducing” in data set [9] (100 μM) and “enhancement” in data set [9] (low concentration 1-10 μM). For the same compound, the “effect on LTD” value was “no longer affected” in data set [10] (100 μM) and “reducing” in [10] (low concentration 1-10 μM).
